Where two headings read alike, the source gives them in different places.
Experiments:
[1] = biological target: T1, rat brain nicotinic receptor (α7 NAChR) (Rattus norvegicus (Rat), UniProt Q05941); type: binding
[2] = Metabolic stability assay in human liver microsomes (HLM); type: in vitro ADME; conditions: 1 μM
Procedure, shortened: (§1)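 In Protocol 1, compound was 1 μM final with NADPH at 37 °C, sampled at 0–45 min. In Protocol 2, 1.5 μM compound with 0.75 mg/mL microsomes (pre-NADPH mix) in 0.1 M potassium phosphate, 1 mM EDTA, pH 7.4 was pre-incubated 10 min, then NADPH started the reaction. Both: LC-MS/MS % remaining versus time 0, half-life from single-phase exponential fit.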

[3] = Metabolic stability assay in rat liver microsomes (RLM); type: in vitro ADME; conditions: 1 μM
Procedure, shortened: as §1

Human plasma stability = type: in vitro ADME; conditions: plasma
Procedure, shortened: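 Protocol 1: 1 μM compound in pH 7.4 sodium-heparin human plasma at 37° C, sampled 0–120 min. Protocol 2: 5 μM in plasma at pH 7.4–8.0, 37° C, duplicates, sampled 0–120 min. Both: LC-MS/MS percent remaining versus t0; half-life from single-phase exponential decay.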

CYP2C19 = CYP2C19 (Homo sapiens (Human), UniProt P33261); conditions: microsomes
CYP1A2 = CYP1A2 (Homo sapiens (Human), UniProt P05177); assay: Cytochrome P450 inhibition in human liver microsomes, CYP1A2
[4] = biological target: T1, rat brain nicotinic receptor (α7 NAChR); type: binding; conditions: Protocol No. 2; [3H] α-Bungarotoxin 0.4 nM, rat brain P2 membrane
CYP3A4 = CYP3A4 (Homo sapiens (Human), UniProt P08684); assay: Cytochrome P450 inhibition in human liver microsomes, CYP3A4
[5] = Protocol No. 1, human liver microsomes
[6] = Protocol No. 1, rat liver microsomes

T1 sequence (Q05941 23-502 limits assumed): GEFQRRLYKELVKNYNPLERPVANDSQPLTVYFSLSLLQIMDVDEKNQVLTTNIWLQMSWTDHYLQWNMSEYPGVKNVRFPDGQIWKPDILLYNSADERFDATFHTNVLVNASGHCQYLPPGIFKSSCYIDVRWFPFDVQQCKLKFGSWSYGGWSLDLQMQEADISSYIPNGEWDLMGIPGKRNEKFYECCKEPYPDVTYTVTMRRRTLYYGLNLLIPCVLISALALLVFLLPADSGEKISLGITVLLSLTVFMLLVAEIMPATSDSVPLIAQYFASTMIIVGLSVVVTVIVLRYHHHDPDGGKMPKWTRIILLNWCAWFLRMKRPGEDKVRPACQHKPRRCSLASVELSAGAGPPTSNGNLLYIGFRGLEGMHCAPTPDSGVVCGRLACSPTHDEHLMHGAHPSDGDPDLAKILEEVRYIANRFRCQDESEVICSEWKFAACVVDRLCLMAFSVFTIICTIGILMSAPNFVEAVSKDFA
Chain of CYP1A2 (P05177 whole entry): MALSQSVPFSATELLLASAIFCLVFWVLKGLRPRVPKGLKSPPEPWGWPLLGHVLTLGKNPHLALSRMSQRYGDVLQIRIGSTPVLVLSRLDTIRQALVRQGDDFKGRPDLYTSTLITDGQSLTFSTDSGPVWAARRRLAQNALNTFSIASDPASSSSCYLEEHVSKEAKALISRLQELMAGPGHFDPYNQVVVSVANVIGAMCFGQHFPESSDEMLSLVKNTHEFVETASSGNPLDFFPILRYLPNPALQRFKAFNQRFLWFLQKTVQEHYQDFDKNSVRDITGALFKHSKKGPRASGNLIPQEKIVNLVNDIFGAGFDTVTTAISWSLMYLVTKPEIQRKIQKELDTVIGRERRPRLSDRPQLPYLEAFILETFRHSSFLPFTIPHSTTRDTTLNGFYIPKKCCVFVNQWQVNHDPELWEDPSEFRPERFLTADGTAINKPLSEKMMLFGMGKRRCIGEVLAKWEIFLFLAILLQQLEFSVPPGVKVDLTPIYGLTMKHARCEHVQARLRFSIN
Chain of CYP2C19 (P33261 whole entry): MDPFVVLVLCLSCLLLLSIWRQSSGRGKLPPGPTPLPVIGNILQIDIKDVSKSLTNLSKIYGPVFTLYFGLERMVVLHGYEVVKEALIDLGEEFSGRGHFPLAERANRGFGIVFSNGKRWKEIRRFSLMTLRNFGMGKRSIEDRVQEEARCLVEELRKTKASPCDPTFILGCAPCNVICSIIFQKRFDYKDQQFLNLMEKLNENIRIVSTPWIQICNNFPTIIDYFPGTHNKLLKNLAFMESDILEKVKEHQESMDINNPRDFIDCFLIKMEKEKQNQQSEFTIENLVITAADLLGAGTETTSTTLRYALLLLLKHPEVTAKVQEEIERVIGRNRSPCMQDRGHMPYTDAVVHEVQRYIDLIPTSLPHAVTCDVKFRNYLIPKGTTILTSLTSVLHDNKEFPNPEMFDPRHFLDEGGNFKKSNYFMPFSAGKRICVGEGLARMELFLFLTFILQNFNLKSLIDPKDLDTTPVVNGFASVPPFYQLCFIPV
Chain of CYP3A4 (P08684 whole entry): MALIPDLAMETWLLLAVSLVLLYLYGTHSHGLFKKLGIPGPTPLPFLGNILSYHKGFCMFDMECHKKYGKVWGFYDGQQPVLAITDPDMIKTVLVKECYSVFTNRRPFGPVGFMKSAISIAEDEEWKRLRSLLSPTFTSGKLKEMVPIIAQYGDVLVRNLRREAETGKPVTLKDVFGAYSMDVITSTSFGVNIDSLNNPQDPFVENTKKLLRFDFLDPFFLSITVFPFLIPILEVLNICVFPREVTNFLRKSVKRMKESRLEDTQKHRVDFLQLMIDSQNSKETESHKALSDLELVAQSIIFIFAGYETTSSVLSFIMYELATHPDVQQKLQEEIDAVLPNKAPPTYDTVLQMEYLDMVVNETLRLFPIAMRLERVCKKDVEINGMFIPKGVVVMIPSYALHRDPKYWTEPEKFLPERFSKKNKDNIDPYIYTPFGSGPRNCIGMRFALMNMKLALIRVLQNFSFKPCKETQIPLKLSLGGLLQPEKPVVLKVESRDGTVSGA

Row | Structure (SMILES) | IC50 [1] [nM] | Ki [1] [nM] | HLM ([2]; human, microsomes, pH 7.4) [mL/min/kg] | RLM ([3]; rat, microsomes, pH 7.4) [mL/min/kg] | % Remaining @ 2 h (Human plasma stability; human, 2 h, 1 μM, pH 7.4) [%] | half-life at 1 μM (Human plasma stability; human, pH 7.4) [h] | IC50 (CYP2C19) [nM] | IC50 (CYP1A2; read-out: 1A2 IC50, Protocol 2) [nM] | IC50 [4] [nM] | Ki [4] [nM] | also measured
1 | O=C(OCC12CCN(CC1)CC2)c1c[nH]c2ccc(Br)cc12 [Compound 23, quinuclidin-4-ylmethyl 5-bromo-1H-indole-3-carboxylate] | 424 | 374 | <13.608 | 81.6815 | 21 | 0.882 | > 10000 | > 10000 | – | – | –
2 | O=C(OCC12CCN(CC1)CC2)c1c[nH]c2cccc(Br)c12 [Compound 24, quinuclidin-4-ylmethyl 4-bromo-1H-indole-3-carboxylate] | 58.1 | 50.4 | <13.608 | 175.569 | 89 | > 2 | > 10000 | > 10000 | – | – | –
3 | O=C(OCC12CCN(CC1)CC2)c1c[nH]c2cc(Br)ccc12 [Compound 22, quinuclidin-4-ylmethyl 6-bromo-1H-indole-3-carboxylate] | 607 | 532 | <13.608 | 49.5027 | 58 | > 2 | > 10000 | > 10000 | – | – | –
4 | O=C(OCC12CCN(CC1)CC2)c1c[nH]c2ccc(Cl)cc12 [Compound 2, quinuclidin-4-ylmethyl 5-chloro-1H-indole-3-carboxylate] | 328 | 287 | <13.608 | 127.44 | – | – | > 10000 | > 10000 | – | – | –
5 | Cc1cc(OC(=O)C(C)(C)C)cc2[nH]cc(C(=O)OCC34CCN(CC3)CC4)c12 [Compound 89, quinuclidin-4-ylmethyl 4-methyl-6-(pivaloyloxy)-1H-indole-3-carboxylate] | – | – | – | – | – | – | – | – | 1070 | 2130 | HLM ([2]; human, microsomes): 347.66 mL/min/kg; RLM ([3]; rat, microsomes): 1154.15 mL/min/kg; % Remaining @ 2 h (Human plasma stability; human, 2 h, 5 μM): 77.23%
6 | COc1cc2[nH]cc(C(=O)OCC34CCN(CC3)CC4)c2cc1OC [Compound 87, quinuclidin-4-ylmethyl 5,6-dimethoxy-1H-indole-3-carboxylate] | – | – | – | – | – | – | – | – | 1560 | 2710 | HLM [2, 5]: 0.5 mL/min/kg; RLM [3, 6]: 257.71 mL/min/kg; % Remaining @ 2 h (Human plasma stability; Protocol No. 2, 5 μM, 37° C.): 55.42%
7 | CC(=O)Nc1cc(C)c2c(C(=O)OCC34CCN(CC3)CC4)c[nH]c2c1 [Compound 93, quinuclidin-4-ylmethyl 6-acetamido-4-methyl-1H-indole-3-carboxylate] | – | – | – | – | – | – | – | – | 1310 | 2870 | HLM ([2]; human, microsomes): 12.96 mL/min/kg; RLM ([3]; rat, microsomes): 12.66 mL/min/kg; % Remaining @ 2 h (Human plasma stability; human, 2 h, 5 μM): 81.38%
8 | O=C(OCC12CCN(CC1)CC2)c1c[nH]c2cccc(Cl)c12 [Compound 35, quinuclidin-4-ylmethyl 4-chloro-1H-indole-3-carboxylate] | 26.6 | 23 | <13.608 | 183.6 | 56 | > 2 | > 10000 | > 10000 | – | – | –
9 | Cc1cc2c(C(=O)OCC34CCN(CC3)CC4)c[nH]c2cc1C#N [Compound 84, quinuclidin-4-ylmethyl 6-cyano-5-methyl-1H-indole-3-carboxylate] | – | – | – | – | – | – | – | – | 3340 | 7180 | HLM [2, 5]: 10.24 mL/min/kg; RLM [3, 6]: 116.21 mL/min/kg; % Remaining @ 2 h (Human plasma stability; Protocol No. 2, 5 μM, 37° C.): 59.79%
10 | COc1cc(C)cc2[nH]cc(C(=O)OCC34CCN(CC3)CC4)c12 [Compound 85, quinuclidin-4-ylmethyl 4-methoxy-6-methyl-1H-indole-3-carboxylate] | – | – | – | – | – | – | – | – | 180 | 357 | HLM ([2]; human, microsomes): 8.18 mL/min/kg; RLM ([3]; rat, microsomes): 59.67 mL/min/kg; % Remaining @ 2 h (Human plasma stability; human, 2 h, 5 μM): 27.28%
11 | COc1ccc2[nH]cc(C(=O)OCC34CCN(CC3)CC4)c2c1Cl [Compound 39, quinuclidin-4-ylmethyl 4-chloro-5-methoxy-1H-indole-3-carboxylate] | 23.9 | 20.6 | – | – | – | – | – | – | – | – | HLM ([2]; human, microsomes): 9.18 mL/min/kg; RLM ([3]; rat, microsomes): 262.35 mL/min/kg; % Remaining @ 2 h (Human plasma stability; human, 2 h, 5 μM): 14.05%; IC50 (CYP2C19; 45 min): > 10000 nM; IC50 (CYP3A4; read-out: 3A4 IC50 (Midazolam), substrate midazolam, Protocol 1): > 10000 nM; IC50 (CYP3A4; read-out: 3A4 IC50 (Testosterone), substrate testosterone, Protocol 1): > 10000 nM; IC50 (CYP1A2; read-out: 1A2 IC50, Protocol 1): > 10000 nM
12 | Cc1cccc2[nH]cc(C(=O)OCC34CCN(CC3)CC4)c12 [Compound 21, quinuclidin-4-ylmethyl 4-methyl-1H-indole-3-carboxylate] | 58.8 | 50.9 | <13.608 | 379.107 | 83 | > 2 | > 10000 | > 10000 | – | – | –
13 | O=C(OCC12CCN(CC1)CC2)c1c[nH]c2c(Cl)cccc12 [Compound 25, quinuclidin-4-ylmethyl 7-chloro-1H-indole-3-carboxylate] | 1650 | 1450 | <13.608 | 219.053 | – | – | > 10000 | > 10000 | – | – | –
14 | O=C(OCC12CCN(CC1)CC2)c1c[nH]c2ccc(Cl)cc12 [Compound 27, quinuclidin-4-ylmethyl 5-chloro-1H-indole-3-carboxylate] | 282 | 247 | <13.608 | 106.429 | – | – | > 10000 | > 10000 | – | – | –
15 | O=C(OCC12CCN(CC1)CC2)c1c[nH]c2cccc(F)c12 [Compound 13, quinuclidin-4-ylmethyl 4-fluoro-1H-indole-3-carboxylate] | 14.1 | 12.2 | <13.608 | 94.3866 | – | 0.25 | > 10000 | > 10000 | – | – | –
16 | O=C(OCC12CCN(CC1)CC2)c1c[nH]c2cc(Cl)ccc12 [Compound 26, quinuclidin-4-ylmethyl 6-chloro-1H-indole-3-carboxylate] | 451 | 398 | <13.608 | 75.0501 | 65 | > 2 | > 10000 | > 10000 | – | – | –
17 | Cl.O=C(OCC12CCN(CC1)CC2)c1c[nH]c2cc(C(F)(F)F)ccc12 [Compound 90, quinuclidin-4-ylmethyl 6-(trifluoromethyl)-1H-indole-3-carboxylate] | – | – | – | – | – | – | – | – | > 3000 | > 3000 | HLM [2, 5]: 5.21 mL/min/kg; RLM [3, 6]: 72.22 mL/min/kg; % Remaining @ 2 h (Human plasma stability; Protocol No. 2, 5 μM, 37° C.): 63.18%
18 | Cc1c(OCC(F)(F)F)ccc2[nH]cc(C(=O)OCC34CCN(CC3)CC4)c12 [Compound 94, quinuclidin-4-ylmethyl 4-methyl-5-(2,2,2-trifluoroethoxy)-1H-indole-3-carboxylate] | – | – | – | – | – | – | – | – | 162 | 230 | HLM ([2]; human, microsomes): 2.62 mL/min/kg; RLM ([3]; rat, microsomes): 26.52 mL/min/kg; % Remaining @ 2 h (Human plasma stability; human, 2 h, 5 μM): 76.38%
